ChEMBL document CHEMBL1155064, “Discovery of aminoquinolines as a new class of potent inhibitors of heat shock protein 90 (Hsp90): Synthesis, biology, and molecular modeling” (Bioorg Med Chem, 2008)
Active and inactive are the calls of the source. The rule behind the calls is not given here.

Experiments:
Heat shock protein HSP90 [1] = target: T1, Heat shock protein HSP90 (Homo sapiens, UniProt P07900+P08238); assay: Inhibition of Hsp90 in human MCF7 cells assessed as Her2 level after 24 hrs by Western blot; assay type: cell-based
Heat shock protein HSP90 [2] = target: T1, Heat shock protein HSP90; assay: Inhibition of Hsp90 in human MCF7 cell lysates assessed as interaction with Cy3b-conjugated geldanamycin by FP assay; assay type: cell-free
MCF7 = assay: Induction of Her2 degradation in human MCF7 cells after 24 hrs by Western blot analysis; assay type: functional, cell-based; details: MCF7, 24 h

Row | SMILES | Activity (Heat shock protein HSP90 [1]) | IC50 (Heat shock protein HSP90 [2]) [µM] | IC50 (Heat shock protein HSP90 [1]) [µM] | IC50 (Heat shock protein HSP90 [2]; read-out: IC50) [µM] | IC50 (MCF7) [µM]
1 | CCN(CC)CCCC(C)Nc1cc(O)cc2cccnc12 (stereo unspecified) | inactive | 1.1 |  |  | 
2 | CC(C)NCCCCCNc1cc(O)cc2cccnc12 |  | 2.4 | 6 |  | 
3 | NCCCNc1cc(O)cc2cccnc12 | inactive | 7.6 |  |  | 
4 | CCN(CC)CCCNc1cc(OC)c(Nc2ccccc2)c2cccnc12 |  | 2.1 | 25 |  | 
5 | COc1cc(NCCCCN)c2ncccc2c1 |  | > 50 | 25 |  | 
6 | COc1cc(NC(C)CCCN)c2ncccc2c1Oc1ccc(Cl)cc1 (stereo unspecified) | inactive | > 50 |  |  | 
7 | COc1cc(NC(C)CCCNC(C)C)c2ncccc2c1OC (stereo unspecified) |  | 44 | 25 |  | 
8 | CCCC(C)N(CC)CCNc1cc(OC)cc2cccnc12 (stereo unspecified) | inactive | 8 |  |  | 
9 | CC(N)CCCCNc1cc(O)cc2cccnc12 (stereo unspecified) |  | < 1.6 | 20 |  | 
10 | CC(CCCN)Nc1cc(O)cc2cccnc12 (stereo unspecified) | inactive | 1.8 |  |  | 
11 | COc1cc(NCCCC(C)N)c2ncccc2c1.Cl.Cl (stereo unspecified) |  | 5.8 | 5 |  | 
12 | CCN(CC)CCCCNc1cc(O)cc2cccnc12 | inactive | > 50 |  |  | 
13 | COc1cc(NCCN(CC(C)C)CC(C)C)c2ncccc2c1 |  | 4.9 | 1.6 |  | 
14 | CCCNCCCC(C)Nc1cc(OC)cc2c(C)ccnc12 (stereo unspecified) | inactive | > 50 |  |  | 
15 | COc1cc(NC(C)CCCNC(C)C)c2ncccc2c1 (stereo unspecified) | inactive | 14.4 |  |  | 
16 | COc1ccc(Oc2c(OC)cc(NCCCCCNC(C)C)c3ncccc23)cc1 | inactive | > 50 |  |  | 
17 | Br.CCN(CC)CCCCCNc1cc(O)cc2cccnc12 |  | 0.73 | 1 |  | 1

The next lines start with the values.

Row | Activity (Heat shock protein HSP90 [1]) | IC50 (Heat shock protein HSP90 [2]) [µM] | IC50 (Heat shock protein HSP90 [1]) [µM] | IC50 (Heat shock protein HSP90 [2]; read-out: IC50) [µM] | IC50 (MCF7) [µM] | SMILES
18 | inactive | 40 |  |  |  | CCCCN(CCCC)CCNc1cc(OC)cc2cccnc12
19 | inactive | > 50 |  |  |  | COc1cc(NCCCN(C(C)C)C(C)C)c2nc(OC)cc(Cl)c2c1
20 | inactive | 40 |  |  |  | COc1cc(NCCN(C(C)C)C(C)C)c2ncccc2c1
21 |  | 0.8 | 30 |  |  | CC(CCN(C)C)Nc1cc(O)cc2cccnc12 (stereo unspecified)
22 | inactive | > 50 |  |  |  | CCC(C)(C)NCCCCCNc1cc(OC)cc2cccnc12
23 | inactive | < 1.6 |  |  |  | NCCCCNc1cc(O)cc2cccnc12
24 |  | < 1 | 20 |  |  | NCCCCCNc1cc(O)cc2cccnc12
25 | inactive | 14 |  |  |  | CCN(CC)CCCNc1cc(OC)cc2ccc(OC)nc12
26 | inactive | < 1.6 |  |  |  | CC(C)NCCCC(C)Nc1cc(O)cc2cccnc12 (stereo unspecified)
27 | inactive | < 1.6 |  |  |  | CCC(N)CCNc1cc(O)cc2cccnc12 (stereo unspecified)
28 | inactive |  |  | 3.1 |  | CCC(C)NCCNc1cc(OC)cc2cccnc12 (stereo unspecified)
29 |  | 40 | 13 |  |  | CCC(CC)NCCCNc1cc(OC)cc2cccnc12
30 | inactive | < 1.6 |  |  |  | CC(N)CCCNc1cc(O)cc2cccnc12 (stereo unspecified)
